# Source: patent US7138242B2, “Olfactory receptor expression libraries and methods of making and using them” (Johns Hopkins University, priority 1998, dated 2006)
# Entries after “also recorded” stand apart in the source; their conditions may differ.
# Key:
# [1] = test system: Rho/M4NC-β2 TM II–VII (TM II–VII region from the β2-adrenergic receptor in pCMV-Rho/M4NC); assay: Single-cell FURA-2 Ca2+ imaging, HEK-293 cells co-transfected with Rho/M4NC-β2 TM II–VII and Gα15,16; format: cell-based, human
# Procedure: HEK-293 cells (obtained from the ATCC) were grown in DMEM supplemented with 10% fetal bovine serum, penicillin (100 U/ml), streptomycin (100 μg/ml) and L-glutamine (2 mM) in 5% CO2. […] After 5 to 7 hr incubation, the cells were washed once with PBS containing 0.5 mM EDTA and 10% DMSO, then with PBS before continuing growth in regular media for 40–50 hr.
# Efficient screening of expressed olfactory receptors with a large number of ligands by functional analysis requires a robust and sensitive assay system. […] In this reporter system, (olfactory) receptor activation leads to the generation of an IP3-mediated increase in intracellular Ca^2+, which can be measured at the single-cell level with high sensitivity and good temporal resolution using the dye FURA-2 and radiofluorometric imaging.
# A construct with the TM II–VII region from the β2-adrenergic receptor inserted in the pCMV-Rho/M4NC vector (Rho/M4NC-β2 TM II–VII) was co-transfected with Gα15,16 into HEK-293 cells. […] Images of fluorescent cells were obtained on a Zeiss 510 confocal microscope with excitation at 488 nm.
# These transfected cells were then tested for their ability to functionally respond to ligand-receptor binding. The ligand, the adrenergic agonist isoproterenol, was “bath” applied to the transfected cells and single cell Ca^2+-imaging was performed. Cells were pre-loaded with the Ca^2+-sensitive fluorescent dye FURA-2 AM (Molecular Probes) by bathing in serum-free DMEM containing 4 μM of the membrane permeant chemical for 1 hr at 37° C., then washed with a standard bath solution (130 mM NaCl, 2 mM CaCl2, 5 mM KCl, 10 mM glucose, 10 mM Na.HEPES/pH 7.4 at room temperature). […] Acetylcholine was applied at the end of each experiment at 10 μM for 15–20 seconds. […] At 5-second intervals, the cells were sequentially illuminated for less than 100 ms, first at 340 nm and then at 380 nm. Fluorescence emission at 510 nm was monitored for each excitation wavelength via an intensified CCD camera. Averaged pixel intensities within 40 to 100 regions of interest, corresponding to 40 to 100 individual cells, were digitized and stored on a computer. Attofluor-Ratiovision software (Atto Instruments) was used to determine the Ca^2+-dependent fluorescence signal expressed as the F340/F380 ratio.
# [2] = test system: endogenous β-adrenergic receptors; assay: Single-cell FURA-2 Ca2+ imaging, HEK-293 cells transfected with the G protein subunits (Gα15,16) alone; format: cell-based, human; settings: no receptor construct
# Procedure: (§1) HEK-293 cells (obtained from the ATCC) were grown in DMEM supplemented with 10% fetal bovine serum, penicillin (100 U/ml), streptomycin (100 μg/ml) and L-glutamine (2 mM) in 5% CO2. Before transfection, the cells were seeded onto poly-L-lysine-coated 10.5×35×0.17 mm glass coverslips (Bellco) placed in the 60 mm culture dishes. Calcium phosphate-mediated transfections were performed in a 60 mm dish with 3 to 4 μg of receptor construct DNA, 1 μg of pCIS Gα 15 and Gα16 expression vector (Offermanns (1995) supra). 2 μg of pBluescript carrier DNA, and 0.3 μg of pRSV-T antigen expression vector (Gorman (1990) DNA and Protein Eng. Tech. 2:3–9). After 5 to 7 hr incubation, the cells were washed once with PBS containing 0.5 mM EDTA and 10% DMSO, then with PBS before continuing growth in regular media for 40–50 hr.
# These transfected cells were then tested for their ability to functionally respond to ligand-receptor binding. The ligand, the adrenergic agonist isoproterenol, was “bath” applied to the transfected cells and single cell Ca^2+-imaging was performed. […] Fluorescence emission at 510 nm was monitored for each excitation wavelength via an intensified CCD camera. […] Attofluor-Ratiovision software (Atto Instruments) was used to determine the Ca^2+-dependent fluorescence signal expressed as the F340/F380 ratio. […]
# [3] = test system: mouse olfactory receptor TM II–VII chimeric receptor library (pools of clones); assay: Ca2+ imaging screen of 80 library chimeric receptors (10 pools of eight constructs) against 26 odorants in HEK-293 cells with Gα15,16; format: cell-based; settings: for intracellular Ca2+ response of a clone pool: 10 μM, odorants applied sequentially; for response of a library receptor: micromolar concentrations, three receptors, respectively
# Procedure: as §1
# (§2) These transfected cells were then tested for their ability to functionally respond to ligand-receptor binding. The ligand, the adrenergic agonist isoproterenol, was “bath” applied to the transfected cells and single cell Ca^2+-imaging was performed. Cells were pre-loaded with the Ca^2+-sensitive fluorescent dye FURA-2 AM (Molecular Probes) by bathing in serum-free DMEM containing 4 μM of the membrane permeant chemical for 1 hr at 37° C., then washed with a standard bath solution (130 mM NaCl, 2 mM CaCl2, 5 mM KCl, 10 mM glucose, 10 mM Na.HEPES/pH 7.4 at room temperature). For each experiment, a glass coverslip with FURA-2 loaded HEK 293 cells was introduced into an open-topped, longitudinal microperfusion chamber (300 μl bath volume mounted on a Zeiss Axiovert 135 microscope equipped with an F Fluar 40×/1.30 oil-immersion lens. The cells were superfused with test solutions typically for 30 to 40 seconds (5 ml/application) and washed out with 5 ml of bath solution at the end of each application. Each test solution was freshly diluted and manually applied with a micropipette into the chamber. Because of this manual procedure, there could be several seconds of delay in actual application from electronic tick marks used to define the beginning of application in each graph. At the same time, the solution flow might not be completely laminar. In most cases, the onset of Ca2+ rise in response to a specific solution occurred within 15 seconds of the beginning of solution application, though longer delays were sometimes observed. Acetylcholine was applied at the end of each experiment at 10 μM for 15–20 seconds. Ratiometric Ca^2+ measurements were performed as described by Grynkiewicz (1985) 260:3440–3450, with modifications using the Zeiss/Attofluor-Ratiovision imaging system. At 5-second intervals, the cells were sequentially illuminated for less than 100 ms, first at 340 nm and then at 380 nm. Fluorescence emission at 510 nm was monitored for each excitation wavelength via an intensified CCD camera. Averaged pixel intensities within 40 to 100 regions of interest, corresponding to 40 to 100 individual cells, were digitized and stored on a computer. Attofluor-Ratiovision software (Atto Instruments) was used to determine the Ca^2+-dependent fluorescence signal expressed as the F340/F380 ratio.
# The 7-transmembrane domain region TM II–VII expressing vector libraries of the invention were expressed in this cell expression system. Various odorant were screened for their ability to generate a physiologic response in the form of a calcium transient, as above. Eighty plasmid clones arrayed in microtiter plates were pooled into 10 groups of eight constructs each, and co-transfected with Gα15,16 into HEK-293 cells. […]
# [4] = test system: full-length I-C6 receptor fused to translocation domain (rhodopsin tag); assay: Ca2+ imaging, full-length I-C6 receptor with rhodopsin tag in HEK-293 cells; format: cell-based, mouse
# Procedure: PCR products were digested with PstI and BspEI restriction enzymes before size fractionation, purification and ligation into the pCMV-Rho/M4NC vector (see FIG. 1A). The vector ligation products were transformed into E. coli and 480 clones were placed in 96-well plates. […] Pools of cells from a single column of the plates (8 wells) were grown in a 50 ml culture and plasmid DNA prepared. Insert-containing vectors containing: the 5′-untranslated region of the rhodopsin gene, which included its coding region for the initiation methionine and the next 19 residues; joined to a full-length cDNA for a mouse olfactory receptor (M4 or I-C6), under the control of the CMV promoter, were also prepared. The full-length coding region of olfactory receptors mI7 and I-C6 were obtained by screening a mouse (129 SV/J) genomic phage (λFIX-II) library (2×10^6 independent clones) using ^32P-labeled DNA fragments (of TMII through VII sequence) of the respective receptors under stringent conditions (hybridized at 0.2×SSC at 65° C.). DNA fragments encoding the full-length receptors were cloned into pBluescript (Stratagene) and sequenced.
# as §2
# To determine if these physiologic responses were caused by ligand interaction with a full-length 7-membrane receptor, a genomic clone of the entire I-C6 receptor coding sequence was isolated and used to make a chimeric molecule incorporating the tranlocation domain of the invention (the “rhodopsin tag” sequence). The full-length I-C6 receptor retained the same stereo-selectivity as a chimeric receptor construct whose only I-C6 sequence was the transmembrane domains II through VII (i.e., the odorant/ligand binding domain). […]
# [5] = test system: I-C6 chimeric olfactory receptor (TM II–VII); assay: Ca2+ imaging, individual clone I-C6 (TM II–VII chimeric) in HEK-293 cells with Gα15,16; format: cell-based, mouse; settings: (−) vs (+) isomer
# Procedure: (§3) These transfected cells were then tested for their ability to functionally respond to ligand-receptor binding. The ligand, the adrenergic agonist isoproterenol, was “bath” applied to the transfected cells and single cell Ca^2+-imaging was performed. Cells were pre-loaded with the Ca^2+-sensitive fluorescent dye FURA-2 AM (Molecular Probes) by bathing in serum-free DMEM containing 4 μM of the membrane permeant chemical for 1 hr at 37° C., then washed with a standard bath solution (130 mM NaCl, 2 mM CaCl2, 5 mM KCl, 10 mM glucose, 10 mM Na.HEPES/pH 7.4 at room temperature). […] Fluorescence emission at 510 nm was monitored for each excitation wavelength via an intensified CCD camera. […] Attofluor-Ratiovision software (Atto Instruments) was used to determine the Ca^2+-dependent fluorescence signal expressed as the F340/F380 ratio. […]
# [6] = test system: I-G7 chimeric olfactory receptor; assay: Ca2+ imaging, individual clone I-G7 in HEK-293 cells with Gα15,16; format: cell-based, mouse; settings: 10 μM
# Procedure: These transfected cells were then tested for their ability to functionally respond to ligand-receptor binding. The ligand, the adrenergic agonist isoproterenol, was “bath” applied to the transfected cells and single cell Ca^2+-imaging was performed. Cells were pre-loaded with the Ca^2+-sensitive fluorescent dye FURA-2 AM (Molecular Probes) by bathing in serum-free DMEM containing 4 μM of the membrane permeant chemical for 1 hr at 37° C., then washed with a standard bath solution (130 mM NaCl, 2 mM CaCl2, 5 mM KCl, 10 mM glucose, 10 mM Na.HEPES/pH 7.4 at room temperature). For each experiment, a glass coverslip with FURA-2 loaded HEK 293 cells was introduced into an open-topped, longitudinal microperfusion chamber (300 μl bath volume mounted on a Zeiss Axiovert 135 microscope equipped with an F Fluar 40×/1.30 oil-immersion lens. The cells were superfused with test solutions typically for 30 to 40 seconds (5 ml/application) and washed out with 5 ml of bath solution at the end of each application. Each test solution was freshly diluted and manually applied with a micropipette into the chamber. Because of this manual procedure, there could be several seconds of delay in actual application from electronic tick marks used to define the beginning of application in each graph. At the same time, the solution flow might not be completely laminar. In most cases, the onset of Ca2+ rise in response to a specific solution occurred within 15 seconds of the beginning of solution application, though longer delays were sometimes observed. Acetylcholine was applied at the end of each experiment at 10 μM for 15–20 seconds. Ratiometric Ca^2+ measurements were performed as described by Grynkiewicz (1985) 260:3440–3450, with modifications using the Zeiss/Attofluor-Ratiovision imaging system. […] Fluorescence emission at 510 nm was monitored for each excitation wavelength via an intensified CCD camera. […] Attofluor-Ratiovision software (Atto Instruments) was used to determine the Ca^2+-dependent fluorescence signal expressed as the F340/F380 ratio. […]
# [7] = test system: I-D3 chimeric olfactory receptor; assay: Ca2+ imaging, individual clone I-D3 in HEK-293 cells with Gα15,16; format: cell-based, mouse
# Procedure: as §3
# [8] = control experiments lacking Gα15,16
compound,measurement,setting,value
CC(C)NCC(O)c1ccc(O)c(O)c1 (stereo not shown) [isoproterenol],intracellular Ca2+ response (FURA-2 F340/F380),"[1]; bath application, cells co-transfected with Gα15,16",transient increase in intracellular Ca^2+
same,Ca2+ response to a second application,[1]; second application (desensitization),frequently failed to elicit a response
same,"dependence of the Ca2+ transient on Gα15,16","[1]; with vs without cotransfected Gα15,16","dependent on cotransfection with the Gα15,16 subunits"
same,intracellular Ca2+ response,[2],small response
"CC(C)=CCCC(C)CC=O (single isomer, unassigned; (+)) [(+) citronellal]",intracellular Ca2+ response of a clone pool,[3],absence of response
same,qualitative rank order of potency for binding and activating the I-C6 receptor,[4],"(−)citronellal>(+)citronellal, citronellyl bromide>28 other odorants"
same,intracellular Ca2+ response,[4]; 30 μM,elicit a response
same,intracellular Ca2+ response,[4]; 100 μM,elicit a response
"CC(C)=CCCC(C)CC=O (single isomer, unassigned; (-)) [(−) citronellal]",intracellular Ca2+ response of a clone pool,[3],transient increases in Ca^2+
same,response of a library receptor,[3],responded
same,stereo-selectivity of the Ca2+ response,[5],selective; also recorded: preferred
same,qualitative rank order of potency for binding and activating the I-C6 receptor,[4],"(−)citronellal>(+)citronellal, citronellyl bromide>28 other odorants"
same,intracellular Ca2+ response,[4]; 1 μM,responding
same,stereo-selectivity of the Ca2+ response,[4]; (−) vs (+) isomer,preferred
same,intracellular Ca2+ response after a prior positive response,[4]; applied immediately after 30 μM (+) citronellal (desensitization),lack of response
same,intracellular Ca2+ response,[4]; [8],no response
(−) limonene,Ca2+ response relative to the (+) isomer,[6],perhaps not as well
same,intracellular Ca2+ response,[6],responded
"CC(C)=CCCC(C)CCBr (single isomer, unassigned; (-)) [(−) citronellyl bromide]",qualitative rank order of potency for binding and activating the I-C6 receptor,[4],"(−)citronellal>(+)citronellal, citronellyl bromide>28 other odorants"
same,intracellular Ca2+ response,[4]; 30 μM,small response
same,intracellular Ca2+ response,[4]; [8],no response
C=C(C)C1CC=C(C)C(=O)C1 (stereo not shown) [carvone],response of a library receptor,[3],responded
same,intracellular Ca2+ response,[4]; 100 μM,no responses
C=C(C)[C@H]1CC=C(C)C(=O)C1 [(+) carvone],intracellular Ca2+ response of a clone pool,[3],lack of response
same,intracellular Ca2+ response,[7],responsive
